The record followed here is publication PMC11527646, “Pharmacological blockade of the mast cell MRGPRX2 receptor supports investigation of its relevance in skin disorders” (Frontiers in Immunology, 2024).

Where two headings read alike, the source gives them in different places.

Holding throughout (assay type): cell-based
In assay [1] the target is T1, a1B-Adrenoreceptor (ADRA1B) (Homo sapiens, UniProt P35368).
T1 construct: expressed in transfected cells
Nature of the assay: GPCR selectivity cellular assay. Conditions: Antagonism; read-out: Antagonist Activity (IC50). Here is the method: (§1) tagonists, with little activity detected on other GPCRs. Antagonist and/or agonist activities of the two compounds were determined in cellular assays for 20 human G-protein coupled receptors (GPCR) beside MRGPRX2. Recombinant over-expression systems in mammalian cells were used for all assays listed in this table. […]
(§2) reported as ‘>’ the highest compound concentration allowed in that assay.
(§3) GPCR Target Name Gene symbol Mode of Activity Compound-A Compound-B […]
(§4) Agonist Activity (EC50 ) or Antagonist Activity (IC50 ), nM […]

The next assay concerns the target T2, M2 receptor (CHRM2) (Homo sapiens, UniProt P08172).
T2 construct: expressed in transfected cells
T2 sequence (P08172 1-466): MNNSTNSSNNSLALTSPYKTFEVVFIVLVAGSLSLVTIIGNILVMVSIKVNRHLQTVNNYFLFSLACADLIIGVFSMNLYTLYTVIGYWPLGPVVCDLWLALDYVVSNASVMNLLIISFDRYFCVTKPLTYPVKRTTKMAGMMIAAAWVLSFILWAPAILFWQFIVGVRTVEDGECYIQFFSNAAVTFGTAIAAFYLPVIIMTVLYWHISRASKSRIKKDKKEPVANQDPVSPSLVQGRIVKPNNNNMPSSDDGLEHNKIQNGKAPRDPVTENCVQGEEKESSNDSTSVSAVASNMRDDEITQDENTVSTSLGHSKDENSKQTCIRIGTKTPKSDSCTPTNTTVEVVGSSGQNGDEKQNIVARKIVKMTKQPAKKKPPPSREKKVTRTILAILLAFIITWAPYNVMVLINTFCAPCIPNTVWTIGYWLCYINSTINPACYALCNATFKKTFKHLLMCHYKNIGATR
Nature of the assay: GPCR selectivity cellular assay. Conditions: for EC50: Agonism, read-out: Agonist Activity (EC50); for IC50: Antagonism, read-out: Antagonist Activity (IC50). As to the method: as §1, §2, §3, §4

Another assay deals with T3, CB1 receptor (CNR1) (Homo sapiens, UniProt P21554).
T3 construct: expressed in transfected cells
Description: GPCR selectivity cellular assay. Here is the method: as §1, §2, §3, §4

The next assay has as its target NK1 receptor (TACR1) (Homo sapiens, UniProt P25103). Description: GPCR selectivity cellular assay. Conditions: Antagonism; read-out: Antagonist Activity (IC50). Here is the method:
as §1, §2, §3, §4

The target in a further assay is T4, D1 receptor (DRD1) (Homo sapiens, UniProt P21728).
T4 construct: expressed in transfected cells
Description: GPCR selectivity cellular assay. Conditions: Antagonism; read-out: Antagonist Activity (IC50). As to the method: as §1, §2, §3, §4

The next assay deals with T5, 5-HT1B receptor (HTR1B) (Homo sapiens, UniProt P28222).
T5 construct: expressed in transfected cells
Nature of the assay: GPCR selectivity cellular assay. The following applies: Agonism; read-out: Agonist Activity (EC50). As to the method:
as §1, §2, §3, §4

The target of another assay is T6, 5-HT2C receptor (HTR2C) (Homo sapiens, UniProt P28335).
T6 sequence (P28335 33-458): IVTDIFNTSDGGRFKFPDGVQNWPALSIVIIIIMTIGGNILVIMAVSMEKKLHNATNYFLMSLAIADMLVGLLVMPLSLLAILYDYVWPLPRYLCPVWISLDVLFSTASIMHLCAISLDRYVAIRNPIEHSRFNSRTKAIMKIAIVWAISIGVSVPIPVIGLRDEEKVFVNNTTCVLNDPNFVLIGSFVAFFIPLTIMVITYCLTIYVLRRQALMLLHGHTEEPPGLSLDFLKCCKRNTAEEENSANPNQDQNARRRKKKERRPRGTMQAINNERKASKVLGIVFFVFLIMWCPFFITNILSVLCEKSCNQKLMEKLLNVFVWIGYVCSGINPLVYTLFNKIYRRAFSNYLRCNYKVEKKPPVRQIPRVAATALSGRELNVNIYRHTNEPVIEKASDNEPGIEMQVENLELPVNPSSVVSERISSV
Nature of the assay: GPCR selectivity cellular assay. The following applies: for EC50: Agonism, read-out: Agonist Activity (EC50); for IC50: Antagonism, read-out: Antagonist Activity (IC50). Here is the method: as §1, §2, §3, §4

Another assay addresses T7, H1 receptor (HRH1) (Homo sapiens, UniProt P35367).
T7 construct: expressed in transfected cells
Nature of the assay: GPCR selectivity cellular assay. The following applies: Antagonism; read-out: Antagonist Activity (IC50). Here is the method:
as §1, §2, §3, §4

The target of another assay is T8, MRGPRX1 (Homo sapiens, UniProt Q96LB2).
T8 construct: expressed in transfected cells
Description: GPCR selectivity cellular assay. The following applies: for EC50: Agonism, read-out: Agonist Activity (EC50); for IC50: Antagonism, read-out: Antagonist Activity (IC50). Here is the method:
Antagonist and/or agonist activities of the two compounds were determined in cellular assays for 20 human G-protein coupled receptors (GPCR) beside MRGPRX2. Recombinant over-expression systems in mammalian cells were used for all assays listed in this table. […]
reported as ‘>’ the highest compound concentration allowed in that assay. […]
Agonist Activity (EC50 ) or Antagonist Activity (IC50 ), nM

In assay [2] the target is T9, monkey MRGPRX2 (Cynomolgus macaques) (Macaca fascicularis, UniProt Q5U9D9).
T9 construct: expressed in transfected cells; host or cells: U2OS transduced with BacMam virus
T9 sequence (Q5U9D9 1-330): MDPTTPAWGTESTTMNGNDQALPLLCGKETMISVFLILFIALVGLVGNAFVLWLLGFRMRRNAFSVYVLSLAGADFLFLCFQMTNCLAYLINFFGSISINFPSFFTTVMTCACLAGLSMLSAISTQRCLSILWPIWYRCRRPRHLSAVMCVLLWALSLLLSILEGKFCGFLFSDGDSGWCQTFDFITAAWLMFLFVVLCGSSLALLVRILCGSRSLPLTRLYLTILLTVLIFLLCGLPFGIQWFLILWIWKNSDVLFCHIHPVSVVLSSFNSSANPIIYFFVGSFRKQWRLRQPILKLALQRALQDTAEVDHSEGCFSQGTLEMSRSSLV
Description: Calcium mobilization in BacMam-transduced U2OS cells. Conditions: for Antagonist activity: likely due to receptor desensitization upon activation and not real antagonism. As to the method: Cell culture reagents were purchased from Thermo Fisher Scientific unless otherwise stated. The LAD2 human mast cell line was in-licensed from National Institutes of Health (NIH) and routinely cultured in StemPro™-34 SFM with nutrient supplement, 1× GlutaMax™, and recombinant human SCF (100 ng/mL). HEK293-MRGPRX2/Gα15 cells were cultured in DMEM containing 10% FBS. The parental U2OS cells were culture in DMEM/F-12 containing 10% FBS. BacMam virus containing human MRGPRX2 gene or animal orthologs [mouse Mrgprb2 (Gene ID: 243979), rat Mrgprb3 (Gene ID: 691194), dog MRGPRX2 (Gene ID: 102125889), cynomolgus monkey MRGPRX2 (Gene ID: 692078), and rhesus monkey MRGPRX2] were used to transduce U2OS cells for transient expression.
Supplemental Table 1: Compound A and Compound B are human MRGPRX2 selective antagonists. Antagonist and agonist activities of the two compounds were determined in calcium mobilization assays for human MRGPRX2 and its animal orthologs from various species. The activities were measured in […] (Molecular Devices) instrument using U2OS cells transduced with BacMam virus for transient expression of the relevant receptors. Data are presented as mean ± SEM when applicable.
Compound A and Compound B up to the highest concentration (100 µM) tested. In the antagonist […]
Compound A and B, respectively. […]
MRGPRX2 and Gα15 proteins (Fig. 1). On monkey MRGPRX2 receptors (both Cynomolgus […]
receptor desensitization upon activation and not real antagonism. […]
Background: A change in cytosolic calcium serves as a functional read-out for many receptors and channels.

As a reminder, the IC50 is the point on the concentration scale where inhibition reaches its midpoint. The EC50 is the concentration giving half of the maximal effect.

T8 sequence (Q96LB2 whole entry): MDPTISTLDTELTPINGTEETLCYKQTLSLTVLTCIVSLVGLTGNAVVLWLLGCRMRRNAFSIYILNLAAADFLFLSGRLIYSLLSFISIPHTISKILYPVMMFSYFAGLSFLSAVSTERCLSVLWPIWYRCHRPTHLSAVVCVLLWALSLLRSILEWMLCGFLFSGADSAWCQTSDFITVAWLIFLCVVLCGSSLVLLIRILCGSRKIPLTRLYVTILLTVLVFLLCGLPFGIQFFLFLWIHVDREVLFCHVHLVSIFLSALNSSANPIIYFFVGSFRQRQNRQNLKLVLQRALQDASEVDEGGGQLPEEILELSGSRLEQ
T7 sequence (P35367 whole entry): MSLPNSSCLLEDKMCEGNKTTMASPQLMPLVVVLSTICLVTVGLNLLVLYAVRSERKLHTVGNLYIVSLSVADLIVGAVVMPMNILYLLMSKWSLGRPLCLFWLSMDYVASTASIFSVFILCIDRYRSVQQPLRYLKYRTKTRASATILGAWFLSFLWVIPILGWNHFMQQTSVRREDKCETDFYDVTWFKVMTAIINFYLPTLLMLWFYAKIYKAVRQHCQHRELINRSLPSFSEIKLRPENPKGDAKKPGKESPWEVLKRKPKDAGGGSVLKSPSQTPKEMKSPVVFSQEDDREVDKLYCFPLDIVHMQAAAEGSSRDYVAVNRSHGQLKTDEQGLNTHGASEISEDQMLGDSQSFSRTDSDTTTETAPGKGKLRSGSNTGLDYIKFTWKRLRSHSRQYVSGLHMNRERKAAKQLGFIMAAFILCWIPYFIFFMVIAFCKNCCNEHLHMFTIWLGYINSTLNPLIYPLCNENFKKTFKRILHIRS
T5 sequence (P28222 whole entry): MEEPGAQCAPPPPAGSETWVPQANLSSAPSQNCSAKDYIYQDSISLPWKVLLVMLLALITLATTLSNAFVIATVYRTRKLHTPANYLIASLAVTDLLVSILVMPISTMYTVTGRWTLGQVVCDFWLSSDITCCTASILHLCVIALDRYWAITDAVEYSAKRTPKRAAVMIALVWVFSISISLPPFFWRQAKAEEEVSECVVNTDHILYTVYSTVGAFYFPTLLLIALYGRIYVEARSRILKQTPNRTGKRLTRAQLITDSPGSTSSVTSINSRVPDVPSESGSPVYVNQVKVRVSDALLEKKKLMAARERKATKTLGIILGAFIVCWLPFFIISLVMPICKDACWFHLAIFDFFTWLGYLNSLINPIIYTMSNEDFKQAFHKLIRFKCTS
T3 sequence (P21554 whole entry): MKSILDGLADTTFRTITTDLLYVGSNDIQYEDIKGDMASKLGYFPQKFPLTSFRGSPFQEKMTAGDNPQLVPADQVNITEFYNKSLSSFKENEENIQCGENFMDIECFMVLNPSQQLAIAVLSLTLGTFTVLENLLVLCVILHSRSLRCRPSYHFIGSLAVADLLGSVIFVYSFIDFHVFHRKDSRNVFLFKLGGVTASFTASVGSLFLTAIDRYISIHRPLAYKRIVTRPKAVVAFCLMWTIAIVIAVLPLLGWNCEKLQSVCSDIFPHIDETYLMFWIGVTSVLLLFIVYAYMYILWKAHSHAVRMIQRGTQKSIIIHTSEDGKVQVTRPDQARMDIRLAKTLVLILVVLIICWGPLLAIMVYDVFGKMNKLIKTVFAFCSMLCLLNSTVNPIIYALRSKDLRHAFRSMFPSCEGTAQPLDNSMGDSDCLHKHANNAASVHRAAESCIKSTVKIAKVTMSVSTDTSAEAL
T4 sequence (P21728 whole entry): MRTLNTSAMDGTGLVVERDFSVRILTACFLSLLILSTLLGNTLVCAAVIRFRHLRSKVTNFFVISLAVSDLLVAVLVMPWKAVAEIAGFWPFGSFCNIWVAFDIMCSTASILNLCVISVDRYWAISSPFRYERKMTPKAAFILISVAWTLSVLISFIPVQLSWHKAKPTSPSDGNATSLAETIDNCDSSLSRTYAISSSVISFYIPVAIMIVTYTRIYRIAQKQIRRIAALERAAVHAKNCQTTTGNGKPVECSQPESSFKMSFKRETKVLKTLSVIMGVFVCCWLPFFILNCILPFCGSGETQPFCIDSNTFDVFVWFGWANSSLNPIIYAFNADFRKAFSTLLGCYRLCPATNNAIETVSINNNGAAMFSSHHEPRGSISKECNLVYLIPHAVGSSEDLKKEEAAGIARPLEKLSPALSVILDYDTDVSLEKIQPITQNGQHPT
Chain of NK1 receptor (TACR1) (P25103 whole entry): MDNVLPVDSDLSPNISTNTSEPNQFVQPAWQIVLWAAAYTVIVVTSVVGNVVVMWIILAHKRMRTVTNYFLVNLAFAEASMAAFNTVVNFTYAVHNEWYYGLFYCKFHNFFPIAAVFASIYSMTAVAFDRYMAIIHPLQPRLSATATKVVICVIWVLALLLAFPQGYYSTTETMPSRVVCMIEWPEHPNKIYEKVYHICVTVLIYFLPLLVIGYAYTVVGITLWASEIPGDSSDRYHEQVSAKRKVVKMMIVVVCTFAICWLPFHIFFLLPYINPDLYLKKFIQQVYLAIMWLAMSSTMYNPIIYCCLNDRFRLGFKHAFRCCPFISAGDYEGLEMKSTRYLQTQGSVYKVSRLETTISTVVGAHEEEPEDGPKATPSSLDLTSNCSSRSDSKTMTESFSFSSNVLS
T1 sequence (P35368 whole entry): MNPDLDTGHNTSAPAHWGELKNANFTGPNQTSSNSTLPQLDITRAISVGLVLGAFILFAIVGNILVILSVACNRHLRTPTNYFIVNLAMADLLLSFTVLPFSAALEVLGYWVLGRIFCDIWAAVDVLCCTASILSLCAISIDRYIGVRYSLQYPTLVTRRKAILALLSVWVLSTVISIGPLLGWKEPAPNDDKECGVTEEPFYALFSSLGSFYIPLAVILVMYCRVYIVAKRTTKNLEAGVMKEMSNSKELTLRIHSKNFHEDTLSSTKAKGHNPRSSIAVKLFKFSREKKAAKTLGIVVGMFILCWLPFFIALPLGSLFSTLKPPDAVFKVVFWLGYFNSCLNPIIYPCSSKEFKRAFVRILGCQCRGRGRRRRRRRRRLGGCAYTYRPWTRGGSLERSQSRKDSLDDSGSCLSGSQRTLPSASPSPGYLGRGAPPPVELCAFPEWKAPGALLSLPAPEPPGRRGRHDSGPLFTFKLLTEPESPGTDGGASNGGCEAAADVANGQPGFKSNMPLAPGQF

Take `CC1(C)C(C(=O)Nc2ccccn2)C1(C)C` [Compound A]: the IC50 in [1] was more than 25 µM; on M2 receptor (CHRM2), more than 50 µM; at NK1 receptor (TACR1), more than 25 µM; at D1 receptor (DRD1), more than 100 µM; on 5-HT2C receptor (HTR2C) it was more than 100 µM; on H1 receptor (HRH1), more than 25 µM. In addition, the concentration for half-maximal inhibition (IC50) at MRGPRX1 is more than 100 µM. Also, the EC50 was more than 50 µM on M2 receptor (CHRM2); more than 25 µM at CB1 receptor (CNR1); 11.9 µM at 5-HT1B receptor (HTR1B); more than 100 µM on 5-HT2C receptor (HTR2C); more than 100 µM at MRGPRX1. In addition, the Agonist activity result in assay [2] is “weak agonist activities”. Moreover, in assay [2], the Antagonist activity entry is reported as “very weak antagonist activities”.

For the compound `C[C@@H](C(=O)Nc1cnc(Oc2ccc(F)cc2F)cn1)N1CCC(F)(F)[C@@H](c2cc[n+]([O-])cc2)C1` [Compound B], the half-maximal inhibitory concentration (IC50) in assay [1] was more than 25 µM; at M2 receptor (CHRM2), more than 50 µM; on NK1 receptor (TACR1) it was more than 25 µM; at D1 receptor (DRD1), more than 100 µM; at 5-HT2C receptor (HTR2C), more than 50 µM; on H1 receptor (HRH1), more than 25 µM. Also, the IC50 on MRGPRX1 is more than 100 µM. The EC50 at M2 receptor (CHRM2) is more than 50 µM; at CB1 receptor (CNR1) (Agonism, read-out: Agonist Activity (EC50)) it was more than 25 µM; at 5-HT1B receptor (HTR1B), more than 50 µM; on 5-HT2C receptor (HTR2C) it was more than 100 µM; at MRGPRX1 it was more than 100 µM. The Agonist activity result in assay [2] is recorded as “weak agonist activities”. For the same compound, the Antagonist activity result in assay [2] is listed as “very weak antagonist activities”.
